We go through 6 compounds from patent US10030006B2, “Coumarin based Hsp90 inhibitors with urea and ether substituents” (University of Kansas, priority 2013, dated 2018).

Like-named read-outs stand apart in the source and are kept apart here.

Assay [1] has as its system SKBr3 (estrogen receptor negative, Her2 over-expressing breast cancer cells). The note with it: background, Marcu, et al., 2000; read-out: Hsp90 C-terminal inhibitor efficiency in SKBr3 cells; cited from earlier work.
The next assay concerns MRC5. The assay is described as follows: Anti-proliferation assay, MRC5 (normal). In kind it is cell-based. As to conditions: Homo sapiens. The method in brief: (§1)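 Cells seeded at 2000/well, attached overnight, then exposed to varying compound concentrations (1% DMSO final) for 72 h at 37 °C, 5% CO2. Viable cells read by MTS/PMS; 1% DMSO wells set as 100% proliferation. IC50 from separate triplicate experiments.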

The subject of the next assay is BCPAP. The assay is described as follows: Anti-proliferation assay, BCPAP. In kind it is cell-based. As to conditions: Homo sapiens, BCPAP, Thyroid. As for the experimental part:
(§2) Cells were maintained in a 1:1 mixture of Advanced DMEM/F12 (Gibco) supplemented with non-essential amino acids, L-glutamine (2 mM), streptomycin (500 μg/mL), penicillin (100 units/mL), and 10% FBS. Cells were grown to confluence in a humidified atmosphere (37° C., 5% CO2), seeded (2000/well, 100 μL) in 96-well plates, and allowed to attach overnight. Compound at varying concentrations in DMSO (1% DMSO final concentration) was added, and cells were returned to the incubator for 72 h. At 72 h, the number of viable cells was determined using an MTS/PMS cell proliferation kit (Promega) per the manufacturer's instructions. Cells incubated in 1% DMSO were used at 100% proliferation, and values were adjusted accordingly. IC50 values were calculated from separate experiments performed in triplicate using GraphPad Prism.

In another assay the test system is HMLE. Put plainly: Anti-proliferation assay, HMLE (normal). In kind it is cell-based. The note with it: HMLE. Put shortly: as §1
Assay [2] concerns MCF-7 (estrogen receptor positive breast cancer cells). The assay is described as follows: Anti-proliferation assay (MTS/PMS, 72 h), MCF-7. In kind it is cell-based. The note with it: Homo sapiens, MCF7.
For another assay, the system named is HCT-116. The assay is described as follows: Anti-proliferation assay, HCT-116. In kind it is cell-based. The note with it: Homo sapiens, HCT-116. Put shortly: as §1
Assay [3] relates to SKBr3 (estrogen receptor negative, Her2 over-expressing breast cancer cells). The assay is described as follows: Anti-proliferation assay (MTS/PMS, 72 h), SKBr3. In kind it is cell-based. As to conditions: Homo sapiens, SK-BR-3.
A further assay has as its system DRO81-1. The assay is described as follows: Anti-proliferation assay, DRO81-1. In kind it is cell-based. The note with it: Thyroid. The method in brief: as §1
The test system of another assay is JMAR. The assay is described as follows: Anti-proliferation assay, JMAR. In kind it is cell-based. As to conditions: JMAR, HSNCC. The method in brief:
as §1

Assay [4] concerns SKBr3 and MCF-7 cell lines. Put plainly: Anti-proliferative activity against both breast cancer cell lines (results in words). In kind it is cell-based. The note with it: text b189, two breast cancer cell lines. As for the experimental part:
as §2
The anti-proliferative activity of these compounds is evaluated against two breast cancer cell lines, SKBr3 (estrogen receptor negative, Her2 over-expressing breast cancer cells) and MCF-7 (estrogen receptor positive breast cancer cells).

The next assay concerns A-549. The assay is described as follows: Anti-proliferation assay, A-549. In kind it is cell-based. The note with it: Homo sapiens, A549. Put shortly:
as §1

A further assay deals with PC-3. Put plainly: Anti-proliferation assay, PC-3. In kind it is cell-based. As to conditions: Homo sapiens, PC-3, Prostate Cancer. The method in brief: as §1
The next assay deals with MDAMB231. The assay is described as follows: Anti-proliferation assay, MDAMB231. The note with it: Homo sapiens, MDA-MB-231, Tri-Neg. In kind it is cell-based. Put shortly: as §1
A further assay has as its system MDA1986. Put plainly: Anti-proliferation assay, MDA1986. In kind it is cell-based. The note with it: MDA1986, HSNCC. Put shortly:
as §1

Where [5] appears, read: Table 7, prenylated phenyl ureas.
Setting [6] is: MRC5, Table 6, substituted phenyl ureas.
Where [7] appears, read: Table 6, substituted phenyl ureas.
Where [8] appears, read: Table 6, substituted phenyl ureas, Breast Cancer, read-out: IC50 MCF-3.
[9] abbreviates: Table 6, substituted phenyl ureas, Breast Cancer, read-out: IC50 SKBr3.

For the compound `CO[C@@H]1[C@@H](OC(N)=O)[C@@H](O)[C@H](Oc2ccc3c(O)c(NC(=O)c4ccc(O)c(CC=C(C)C)c4)c(=O)oc3c2C)OC1(C)C` [Novobiocin], the IC50 in assay [1] is ~700 µM.
In the case of `CC(C)=CCc1cc(NC(=O)Nc2cc3ccc(OC4CCN(C)CC4)c(C)c3oc2=O)ccc1O` [OH, 1-(4-hydroxy-3-(3-methylbut-2-en-1-yl)phenyl)-3-(8-methyl-7-((1-methylpiperidin-4-yl)oxy)-2-oxo-2H-chromen-3-yl)urea], the IC50 in the assay with MRC5 (MRC5, Table 7, prenylated phenyl ureas) is 4.02 µM; with BCPAP (setting [5]), 990 nM; in the assay on HMLE (setting [5]) it was 4.8 µM; in [2] (Table 7, prenylated phenyl ureas, Breast Cancer, read-out: IC50 MCF-3), 370 nM; in assay [2] (amide versus urea linkage, read-out: IC50 for MCF-3) it was 370 nM; in the assay with HCT-116 (setting [5]), 390 nM. The IC50 in assay [3] (Table 7, prenylated phenyl ureas, Breast Cancer, read-out: IC50 SKBr3) was found to be 390 nM; in [3] (amide versus urea linkage, read-out: IC50 for SKBr3), 390 nM; in the assay on DRO81-1 (setting [5]), 1100 nM; in the assay on JMAR (setting [5]), 910 nM; in the assay on A-549 (setting [5]) it was 250 nM; in the assay with PC-3 (setting [5]) it was 290 nM. Also, the IC50 in the assay with MDAMB231 (setting [5]) came out at 660 nM; in the assay with MDA1986 (setting [5]), 1360 nM. In [4], the “increase in inhibition, urea versus amide linkage” value is listed as 2-3 fold.
Consider `CCc1cccc(NC(=O)Nc2cc3ccc(OC4CCN(C)CC4)c(C)c3oc2=O)c1` [m-CH2CH3, 1-(3-ethylphenyl)-3-(8-methyl-7-((1-methylpiperidin-4-yl)oxy)-2-oxo-2H-chromen-3-yl)urea], for which the IC50 in the assay on MRC5 (setting [6]) is 5.3 µM; in the assay on BCPAP (setting [7]) it was 5590 nM; in the assay with HMLE (setting [7]), > 25 µM; in [2] (setting [8]), 500 nM; in the assay on HCT-116 (setting [7]) it was 340 nM; in assay [3] (setting [9]), 440 nM. The IC50 was 670 nM in the assay on DRO81-1 (setting [7]); 630 nM in the assay with JMAR (setting [7]); 400 nM with A-549 (setting [7]); 410 nM in the assay with PC-3 (setting [7]); 1900 nM in the assay with MDAMB231 (setting [7]); 1320 nM in the assay with MDA1986 (setting [7]).
Turning to `Cc1c(OC2CCN(C)CC2)ccc2cc(NC(=O)Nc3cccc(O)c3)c(=O)oc12` [m-OH, 1-(3-hydroxyphenyl)-3-(8-methyl-7-((1-methylpiperidin-4-yl)oxy)-2-oxo-2H-chromen-3-yl)urea], the IC50 is > 25 µM with MRC5 (setting [6]); 270 nM in the assay on BCPAP (setting [7]); 11.9 µM in the assay on HMLE (setting [7]); 2730 nM in assay [2] (setting [8]); > 100000 nM in the assay with HCT-116 (setting [7]); 2370 nM in [3] (setting [9]). The IC50 in the assay with DRO81-1 (setting [7]) is > 25000 nM; in the assay on JMAR (setting [7]), 6500 nM; with A-549 (setting [7]) it was 10900 nM; with PC-3 (setting [7]), 10900 nM; in the assay with MDAMB231 (setting [7]) it was 1300 nM; in the assay on MDA1986 (setting [7]) it was 21900 nM.
As for `CCc1ccc(NC(=O)Nc2cc3ccc(OC4CCN(C)CC4)c(C)c3oc2=O)cc1` [p-CH2CH3, 1-(4-ethylphenyl)-3-(8-methyl-7-((1-methylpiperidin-4-yl)oxy)-2-oxo-2H-chromen-3-yl)urea], the IC50 in the assay on MRC5 (setting [6]) came to 2.6 µM; in the assay with BCPAP (setting [7]), 4360 nM; with HMLE (setting [7]), 1.2 µM; in [2] (setting [8]) it was 560 nM; with HCT-116 (setting [7]), 530 nM; in [3] (setting [9]) it was 580 nM. Besides, the IC50 amounted to 290 nM with DRO81-1 (setting [7]); 1030 nM in the assay on JMAR (setting [7]); 490 nM in the assay on A-549 (setting [7]); 410 nM in the assay with PC-3 (setting [7]); 690 nM in the assay with MDAMB231 (setting [7]); 1400 nM in the assay with MDA1986 (setting [7]).
As for `CC(=O)Oc1cccc(NC(=O)Nc2cc3ccc(OC4CCN(C)CC4)c(C)c3oc2=O)c1` [m-OAc, 3-(3-(8-methyl-7-((1-methylpiperidin-4-yl)oxy)-2-oxo-2H-chromen-3-yl)ureido)phenyl acetate], the IC50 is > 25 µM in the assay with MRC5 (setting [6]); 2820 nM in the assay on BCPAP (setting [7]); 13.6 µM with HMLE (setting [7]); 1410 nM in [2] (setting [8]); 12100 nM with HCT-116 (setting [7]); 2370 nM in assay [3] (setting [9]). The IC50 in the assay with DRO81-1 (setting [7]) was determined as 2700 nM; with JMAR (setting [7]), 3850 nM; in the assay on A-549 (setting [7]), 1910 nM; with PC-3 (setting [7]), 1910 nM; with MDAMB231 (setting [7]), 4100 nM; in the assay with MDA1986 (setting [7]), 6820 nM.
